In US12251383B2, “Methods and compositions for KRAS inhibitors” (The Board of Regents of the University of Texas System, priority 2019, dated 2025):
“Also recorded” adds a separate entry of the source.

Legend:
[1] = Solubility in DMSO and common solvents; type: physicochemical; settings: DMSO
KRAS^G12D = test: Cell signaling (Western) in BHK cells expressing KRAS G12D; type: cell-based, hamster; settings: BHK KRAS^G12D
Procedure: (§1) Cell signaling. The inhibitory potential of compounds was tested in monoclonal Baby Hamster Kidney (BHK) cell lines stably expressing monomeric green fluorescence protein (mGFP)-tagged KRAS^G12D, K-Ras^G12V and HRAS^G12V. Cells were cultured in Dulbecco's Modified Eagle Medium (DMEM, Hyclone) supplemented with 10% v/v bovine calf serum and incubated with compound or vehicle (DMSO) for 3 h without serum. Cells were then harvested in lysis buffer (50 mM Tris (pH 7.5), 75 mM NaCl, 25 mM NaF, 5 mM MgCl2, 5 mM EGTA, 1 mM dithiothreitol, 100 μM NaVO4, 1% Nonidet P40 plus protease inhibitors) and subjected to Western analysis controlling protein loading by BCA (bicinchoninic acid) assay. Lysates were resolved with Bio-Rad polyacrylamide TGX 10% gel, transferred to polyvinylidene fluoride (PVDF) membrane and immunoblotted using pan-AKT (2920S), GFP (2956S), pAKT^S473 (4060L), p-cRaf^S338 (9427S), p-ERK^T202/Y204 (4370L), ERK1/2 (4695S) or β-actin antibodies (Cell Signaling Technology). IC50 values were calculated with Prism 4-parameter fit.
Cell signaling assays identify compound 11 as a promising initial hit Western analysis was used to quickly assess the potential impact of the predicted hits on MAPK signaling, a major pathway mediated by KRAS. Specifically, ERK1/2 phosphorylation levels (p-ERK) were monitored in BHK cells stably expressing KRAS^G12D treated with vehicle (DMSO), the MEK inhibitor […] (U) or compound at four different concentrations (1-100 μM). […] Compounds 9 and 11 (structures for compounds 1-11 are provided in Appendix I, attached hereto), on the other hand, decreased p-ERK levels at concentrations ≥50 μM and ≥5 μM, respectively. To verify the latter observation, the experiments were repeated in an expanded concentration range starting from 0.1 μM. […] However, compound 9 (see Appendix I, attached hereto) increased p-ERK levels at 25 and 38 μM in contrast to the decrease observed at higher concentrations (FIG. S1B; see Appendix I, attached hereto).

lung cancer cells = test: Cell proliferation (CyQuant), lung cancer cells overall; type: cell-based
Excerpt: (FIG. 5A) Chemical structure of compounds 12, an analogue of 11 lacking the terminal methyl alcohol functional group. (FIG. 5B) Predicted binding pose of compound 12. (FIG. 5C) p-ERK and p-cRaf levels in BHK cells expressing KRAS^G12D treated with indicated concentrations of compound 12 or vehicle. (FIG. 5D) Proliferation profile of lung cancer cells upon treatment with increasing concentration of compound 12, monitored by a CyQuant assay. Data are averages over three independent experiments and error bars represent standard error. (FIG. 5E) GFP fluorescence lifetime from FLIM-FRET using cells expressing GFP-KRAS^G12D alone or together with RFP-cRaf, with or without treatment with 2 μM compound 12.
Cell proliferation. Potential effect of the ligands on cancer cell proliferation was tested in three lung cancer cells: SKLU-1, H1975 and H522. Cells were plated at ˜1,000 cell per well in a 96-well plate and maintained in full serum media with or without compound at 37° C. for 72 h changing the media with the compound every 24 h. Media with compound was prepared by serial dilution at concentrations indicated. Then cells were washed with PBS and frozen at −80° C. for a minimum of 24 h. Plates were thawed and CyQuant™ dye (in lysis buffer provided in the CyQuant™ cell proliferation assay kit, Invitrogen™) was added, and after a five-minute incubation, fluorescence (excitation: 480 nm emission: 520 nm) was measured with a Tecan Infinite M200 plate reader.

[2] = molecular target: T1, KRAS^G12D-cRaf interaction (Homo sapiens, UniProt P01116, G12D); test: FLIM-FRET of GFP-KRAS G12D and RFP-cRaf in BHK cells; type: cell-based, hamster; settings: 2 μM
T1 construct: expressed in transfected cells; host or cells: BHK (baby hamster kidney) cells, transient expression
Excerpt: [formula] where P1 is polarization of free KRAS, P2 is polarization of Raf-bound KRAS, c is the total concentration of KRAS, and x the total concentration of Raf^RBD. (FIG. 2B) Amount of GFP-KRAS^G12D pulled down by GST-Raf^RBD after treatment of cell lysates with compound at the concentrations indicated (representative Westerns are shown at the top). The RBD sequence length was 1-149 and 51-131 in the fluorescence polarization and pull-down assays, respectively. (FIG. 2C) GFP fluorescence lifetime from FLIM-FRET using cells expressing GFP-KRAS^G12D alone or with RFP-Raf, with or without treatment by 1 μM compound 11. Data are shown as mean±S.E; significance estimated by one-way analysis of variance.
Fluorescence lifetime imaging (FLIM)-fluorescence resonance energy transfer (FRET). FLIM-FRET experiments were carried out using a lifetime fluorescence imaging attachment (Lambert Instruments, The Netherlands) on an inverted microscope (43). BHK cells transiently expressing mGFP-tagged KRAS^G12D (donor), alone or with mRFP-tagged cRaf^WT (acceptor) (using 1:5 ratio), were prepared as indicated in each experiment. The samples were excited using a sinusoidally modulated 3 W 470 nm light-emitting diode at 40 MHz under epi-illumination. Fluorescein was used as a lifetime reference standard. […] The phase and modulation were determined from 12 phase settings using the manufacturer's software. […]

HRAS^G12V = test: Cell signaling (Western) in BHK cells expressing HRAS G12V; type: cell-based, hamster; settings: 10 μM
Procedure: as §1

Row | Structure (SMILES) | solubility [1] | concentration at which p-ERK levels are decreased (KRAS^G12D) [µM] | effect on p-cRaf levels (KRAS^G12D) | inhibition of cell proliferation relative to compound 11 (lung cancer cells) | selectivity between KRAS mutant and KRAS^WT lung cancer cells (lung cancer cells) | KRAS-Raf interaction (FLIM-FRET) [2] | effect on MAPK signaling (HRAS^G12V)
1 | Cc1nn2c(N3CCN(C)CC3)cc(-c3ccccc3)nc2c1-c1ccccc1 [Compound 12] | less soluble; also recorded: solubility issues | 2 | no effect | somewhat less effective | better selectively profile | does not affect | 
2 | N#CC(=C(/N)Sc1ccccc1N)/C(C#N)=C(\N)Sc1ccccc1N [Compound U0126, reference compound] |  |  |  |  |  |  | almost completely abolished
